Data as given in ChEMBL document CHEMBL5465560, “Selectivity Literature for EUbOPEN Chemogenomic Library” (2024).

What was measured:
[1] = target: T1, Serine/threonine-protein kinase TAO1 (Homo sapiens) (UniProt Q7L7X3); assay: Selectivity interaction (Kinase panel (KiNativ target engagement assay in Jurkat cells)) EUB0001635a TAOK1; assay type: cell-based; details: Selectivity number of off-targets 0.0, Selectivity number of targets 233.0, Source Knowledge https://www.sciencedirect.com/science/article/pii/S2451945619300674?via%3Dihub, at 1 µM
T1 sequence (whole entry): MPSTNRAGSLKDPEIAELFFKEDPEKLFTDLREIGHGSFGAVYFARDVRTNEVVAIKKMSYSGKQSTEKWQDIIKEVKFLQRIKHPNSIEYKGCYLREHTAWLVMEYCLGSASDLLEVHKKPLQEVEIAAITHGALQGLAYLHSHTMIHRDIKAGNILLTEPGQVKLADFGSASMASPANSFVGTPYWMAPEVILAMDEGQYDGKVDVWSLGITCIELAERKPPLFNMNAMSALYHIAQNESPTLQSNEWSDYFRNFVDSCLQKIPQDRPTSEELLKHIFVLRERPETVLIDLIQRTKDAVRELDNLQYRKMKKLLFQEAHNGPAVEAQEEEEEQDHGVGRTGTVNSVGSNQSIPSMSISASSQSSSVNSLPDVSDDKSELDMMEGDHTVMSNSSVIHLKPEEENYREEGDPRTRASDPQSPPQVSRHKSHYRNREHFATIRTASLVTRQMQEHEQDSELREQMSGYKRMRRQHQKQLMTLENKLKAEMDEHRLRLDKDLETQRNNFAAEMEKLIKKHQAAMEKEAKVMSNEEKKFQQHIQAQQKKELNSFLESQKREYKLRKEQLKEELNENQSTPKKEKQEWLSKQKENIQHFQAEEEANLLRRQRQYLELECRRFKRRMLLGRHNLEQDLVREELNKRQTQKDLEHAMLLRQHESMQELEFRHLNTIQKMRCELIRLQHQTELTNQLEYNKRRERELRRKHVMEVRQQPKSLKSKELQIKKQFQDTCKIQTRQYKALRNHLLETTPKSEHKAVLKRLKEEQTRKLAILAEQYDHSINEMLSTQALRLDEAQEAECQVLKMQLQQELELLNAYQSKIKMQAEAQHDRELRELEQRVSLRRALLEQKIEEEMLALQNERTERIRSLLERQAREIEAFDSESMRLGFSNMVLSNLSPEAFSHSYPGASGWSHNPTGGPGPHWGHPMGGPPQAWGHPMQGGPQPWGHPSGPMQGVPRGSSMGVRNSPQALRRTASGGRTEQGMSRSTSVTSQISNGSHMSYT

[2] = target: Histone-lysine N-methyltransferase SETDB1 (Homo sapiens) (UniProt Q15047); details: at 1 µM
[3] = target: Death-associated protein kinase 3 (Homo sapiens) (UniProt O43293); assay: Selectivity interaction (KinomeScan (DiscoverX)) EUB0000045b DAPK3
Sequence of Death-associated protein kinase 3 (Homo sapiens) (O43293 whole entry, looked up): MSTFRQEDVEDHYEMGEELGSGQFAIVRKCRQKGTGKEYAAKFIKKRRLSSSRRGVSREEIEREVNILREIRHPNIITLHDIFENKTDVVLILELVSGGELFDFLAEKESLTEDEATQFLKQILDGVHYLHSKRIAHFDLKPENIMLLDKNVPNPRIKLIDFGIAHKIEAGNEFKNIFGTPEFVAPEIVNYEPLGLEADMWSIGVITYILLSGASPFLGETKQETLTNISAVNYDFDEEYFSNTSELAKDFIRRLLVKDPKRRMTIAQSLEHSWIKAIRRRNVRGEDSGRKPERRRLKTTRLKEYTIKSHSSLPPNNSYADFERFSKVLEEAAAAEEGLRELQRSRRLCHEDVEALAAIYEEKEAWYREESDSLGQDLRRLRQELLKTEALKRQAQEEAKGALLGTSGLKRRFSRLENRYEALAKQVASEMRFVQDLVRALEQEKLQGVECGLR

[4] = tested on: Proto-oncogene tyrosine-protein kinase receptor Ret (Homo sapiens), P07949 [M918T]; assay: (§1) Selectivity interaction (KinomeScan (DiscoverX)) EUB0000695a RET; details: at 100 nM
Sequence of Proto-oncogene tyrosine-protein kinase receptor Ret (Homo sapiens), P07949 [M918T] (P07949 whole entry M918T): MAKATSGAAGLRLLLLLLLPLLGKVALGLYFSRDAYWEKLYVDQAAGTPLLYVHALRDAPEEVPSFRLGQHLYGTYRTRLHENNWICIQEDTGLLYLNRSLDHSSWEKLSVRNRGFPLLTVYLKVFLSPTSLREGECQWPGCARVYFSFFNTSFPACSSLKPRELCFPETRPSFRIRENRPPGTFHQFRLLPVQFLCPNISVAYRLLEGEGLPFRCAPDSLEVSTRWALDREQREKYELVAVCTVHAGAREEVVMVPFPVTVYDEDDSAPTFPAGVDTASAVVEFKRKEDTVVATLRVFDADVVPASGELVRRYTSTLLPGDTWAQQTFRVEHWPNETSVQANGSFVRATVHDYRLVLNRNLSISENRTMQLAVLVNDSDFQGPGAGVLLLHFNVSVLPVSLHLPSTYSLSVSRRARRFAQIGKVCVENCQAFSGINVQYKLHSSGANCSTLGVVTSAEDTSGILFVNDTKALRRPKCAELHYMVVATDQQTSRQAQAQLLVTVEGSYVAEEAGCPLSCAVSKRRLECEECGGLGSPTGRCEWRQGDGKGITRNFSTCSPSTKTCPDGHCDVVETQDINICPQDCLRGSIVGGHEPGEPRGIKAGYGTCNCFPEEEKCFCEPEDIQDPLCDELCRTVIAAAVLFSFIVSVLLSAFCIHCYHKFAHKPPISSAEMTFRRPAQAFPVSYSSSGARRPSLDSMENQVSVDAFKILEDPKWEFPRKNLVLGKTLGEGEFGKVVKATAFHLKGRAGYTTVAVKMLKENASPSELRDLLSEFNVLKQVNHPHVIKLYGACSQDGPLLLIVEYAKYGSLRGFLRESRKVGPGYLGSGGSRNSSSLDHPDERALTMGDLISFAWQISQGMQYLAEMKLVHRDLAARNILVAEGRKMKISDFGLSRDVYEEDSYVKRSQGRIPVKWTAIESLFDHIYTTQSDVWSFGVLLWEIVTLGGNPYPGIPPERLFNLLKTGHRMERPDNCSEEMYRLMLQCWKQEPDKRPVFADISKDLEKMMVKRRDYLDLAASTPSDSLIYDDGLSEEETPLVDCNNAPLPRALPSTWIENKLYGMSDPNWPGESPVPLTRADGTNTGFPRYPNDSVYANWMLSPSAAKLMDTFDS

[5] = tested on: Proto-oncogene tyrosine-protein kinase receptor Ret (Homo sapiens), P07949 [V804L]; assay: as §1; details: at 100 nM
Sequence of Proto-oncogene tyrosine-protein kinase receptor Ret (Homo sapiens), P07949 [V804L] (P07949 whole entry V804L): as the sequence (P07949 whole entry M918T) above, with V804L, T918M counted along it

[6] = tested on: Proto-oncogene tyrosine-protein kinase receptor Ret (Homo sapiens), P07949 [V804M]; assay: as §1; details: at 100 nM
Sequence of Proto-oncogene tyrosine-protein kinase receptor Ret (Homo sapiens), P07949 [V804M] (P07949 whole entry V804M): as the sequence (P07949 whole entry M918T) above, with V804M, T918M counted along it

[7] = target: Proto-oncogene tyrosine-protein kinase receptor Ret (Homo sapiens, UniProt P07949); assay: as §1; details: at 100 nM
Sequence of Proto-oncogene tyrosine-protein kinase receptor Ret (P07949 whole entry): as the sequence (P07949 whole entry M918T) above, with T918M counted along it

[8] = target: Serine/threonine-protein kinase 35 (Homo sapiens) (UniProt Q8TDR2); assay: Selectivity interaction (KinomeScan (DiscoverX)) EUB0000695a STK35; details: at 100 nM
Sequence of Serine/threonine-protein kinase 35 (Homo sapiens) (Q8TDR2 whole entry): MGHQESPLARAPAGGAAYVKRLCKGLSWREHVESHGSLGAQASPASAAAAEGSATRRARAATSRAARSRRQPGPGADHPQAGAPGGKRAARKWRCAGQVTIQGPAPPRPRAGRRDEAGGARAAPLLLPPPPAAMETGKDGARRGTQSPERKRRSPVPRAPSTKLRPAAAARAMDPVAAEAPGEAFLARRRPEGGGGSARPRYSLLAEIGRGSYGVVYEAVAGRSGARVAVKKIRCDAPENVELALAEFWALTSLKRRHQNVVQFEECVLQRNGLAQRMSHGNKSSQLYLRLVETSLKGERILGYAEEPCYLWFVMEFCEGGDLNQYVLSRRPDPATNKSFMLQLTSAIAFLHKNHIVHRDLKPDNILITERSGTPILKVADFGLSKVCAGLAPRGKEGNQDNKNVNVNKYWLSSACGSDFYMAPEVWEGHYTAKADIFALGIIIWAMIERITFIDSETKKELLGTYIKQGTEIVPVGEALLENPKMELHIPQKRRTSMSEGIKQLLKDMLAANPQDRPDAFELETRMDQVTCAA

[9] = target: Casein kinase II subunit alpha (Homo sapiens, UniProt P68400); assay: Selectivity interaction (KinomeScan (DiscoverX)) EUB0001619a CSNK2A1; details: at 1 µM
Sequence of Casein kinase II subunit alpha (P68400 whole entry, looked up): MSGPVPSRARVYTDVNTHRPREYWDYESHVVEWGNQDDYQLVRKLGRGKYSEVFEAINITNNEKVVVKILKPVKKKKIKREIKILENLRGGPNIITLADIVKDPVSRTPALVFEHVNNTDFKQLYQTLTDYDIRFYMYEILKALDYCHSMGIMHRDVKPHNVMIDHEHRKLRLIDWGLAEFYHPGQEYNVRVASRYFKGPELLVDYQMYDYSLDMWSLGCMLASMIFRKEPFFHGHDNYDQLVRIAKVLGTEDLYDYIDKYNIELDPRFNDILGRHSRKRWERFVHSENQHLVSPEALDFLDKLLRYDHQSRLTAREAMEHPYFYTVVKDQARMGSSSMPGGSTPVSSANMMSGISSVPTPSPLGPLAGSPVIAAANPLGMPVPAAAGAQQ

[10] = target: T2, Testis-specific serine/threonine-protein kinase 1 (Homo sapiens) (UniProt Q9BXA7); assay: Selectivity interaction (KinomeScan (DiscoverX)) EUB0001619a TSSK1B; details: at 1 µM
T2 sequence (whole entry): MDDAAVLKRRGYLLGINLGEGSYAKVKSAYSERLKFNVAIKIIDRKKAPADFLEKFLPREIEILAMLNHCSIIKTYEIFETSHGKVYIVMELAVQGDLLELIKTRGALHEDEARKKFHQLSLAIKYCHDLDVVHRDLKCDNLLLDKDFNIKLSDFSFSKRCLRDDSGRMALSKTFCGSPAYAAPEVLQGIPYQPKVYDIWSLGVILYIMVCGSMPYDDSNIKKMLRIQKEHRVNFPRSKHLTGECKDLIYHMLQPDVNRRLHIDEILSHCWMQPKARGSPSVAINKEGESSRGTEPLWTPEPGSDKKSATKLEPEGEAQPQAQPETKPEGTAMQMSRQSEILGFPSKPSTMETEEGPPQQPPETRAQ

[11] = target: Ribosomal protein S6 kinase alpha-3 (Homo sapiens, UniProt P51812); assay: Selectivity interaction (ActivX KiNativ screen (kinase selectivity in THP-1 cell lysates)) EUB0000639a RPS6KA3; assay type: subcellular; details: lysate, at 1 µM
Sequence of Ribosomal protein S6 kinase alpha-3 (P51812 whole entry): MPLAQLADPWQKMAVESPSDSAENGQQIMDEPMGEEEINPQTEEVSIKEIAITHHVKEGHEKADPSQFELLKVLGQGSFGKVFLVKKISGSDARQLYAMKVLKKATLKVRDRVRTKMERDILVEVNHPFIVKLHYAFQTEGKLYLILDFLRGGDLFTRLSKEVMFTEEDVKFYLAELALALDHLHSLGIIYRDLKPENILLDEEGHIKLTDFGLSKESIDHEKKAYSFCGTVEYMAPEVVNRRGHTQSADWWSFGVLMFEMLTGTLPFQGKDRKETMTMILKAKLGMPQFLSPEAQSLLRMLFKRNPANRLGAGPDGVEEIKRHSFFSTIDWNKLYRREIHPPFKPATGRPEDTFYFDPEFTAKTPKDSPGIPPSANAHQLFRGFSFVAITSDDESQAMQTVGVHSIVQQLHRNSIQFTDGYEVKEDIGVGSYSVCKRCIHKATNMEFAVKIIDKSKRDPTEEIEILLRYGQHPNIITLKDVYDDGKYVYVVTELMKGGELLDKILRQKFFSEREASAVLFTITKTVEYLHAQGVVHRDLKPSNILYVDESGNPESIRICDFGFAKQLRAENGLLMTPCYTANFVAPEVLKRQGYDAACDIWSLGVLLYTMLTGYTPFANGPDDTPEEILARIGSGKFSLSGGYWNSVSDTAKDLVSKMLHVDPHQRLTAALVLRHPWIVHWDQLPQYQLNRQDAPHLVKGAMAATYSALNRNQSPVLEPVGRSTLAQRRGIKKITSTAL

[12] = target: TRAF2 and NCK-interacting protein kinase (Homo sapiens) (UniProt Q9UKE5); assay: Selectivity interaction (ActivX KiNativ screen (kinase selectivity in THP-1 cell lysates)) EUB0000639a TNIK; assay type: subcellular; details: lysate
Sequence of TRAF2 and NCK-interacting protein kinase (Homo sapiens) (Q9UKE5 whole entry, looked up): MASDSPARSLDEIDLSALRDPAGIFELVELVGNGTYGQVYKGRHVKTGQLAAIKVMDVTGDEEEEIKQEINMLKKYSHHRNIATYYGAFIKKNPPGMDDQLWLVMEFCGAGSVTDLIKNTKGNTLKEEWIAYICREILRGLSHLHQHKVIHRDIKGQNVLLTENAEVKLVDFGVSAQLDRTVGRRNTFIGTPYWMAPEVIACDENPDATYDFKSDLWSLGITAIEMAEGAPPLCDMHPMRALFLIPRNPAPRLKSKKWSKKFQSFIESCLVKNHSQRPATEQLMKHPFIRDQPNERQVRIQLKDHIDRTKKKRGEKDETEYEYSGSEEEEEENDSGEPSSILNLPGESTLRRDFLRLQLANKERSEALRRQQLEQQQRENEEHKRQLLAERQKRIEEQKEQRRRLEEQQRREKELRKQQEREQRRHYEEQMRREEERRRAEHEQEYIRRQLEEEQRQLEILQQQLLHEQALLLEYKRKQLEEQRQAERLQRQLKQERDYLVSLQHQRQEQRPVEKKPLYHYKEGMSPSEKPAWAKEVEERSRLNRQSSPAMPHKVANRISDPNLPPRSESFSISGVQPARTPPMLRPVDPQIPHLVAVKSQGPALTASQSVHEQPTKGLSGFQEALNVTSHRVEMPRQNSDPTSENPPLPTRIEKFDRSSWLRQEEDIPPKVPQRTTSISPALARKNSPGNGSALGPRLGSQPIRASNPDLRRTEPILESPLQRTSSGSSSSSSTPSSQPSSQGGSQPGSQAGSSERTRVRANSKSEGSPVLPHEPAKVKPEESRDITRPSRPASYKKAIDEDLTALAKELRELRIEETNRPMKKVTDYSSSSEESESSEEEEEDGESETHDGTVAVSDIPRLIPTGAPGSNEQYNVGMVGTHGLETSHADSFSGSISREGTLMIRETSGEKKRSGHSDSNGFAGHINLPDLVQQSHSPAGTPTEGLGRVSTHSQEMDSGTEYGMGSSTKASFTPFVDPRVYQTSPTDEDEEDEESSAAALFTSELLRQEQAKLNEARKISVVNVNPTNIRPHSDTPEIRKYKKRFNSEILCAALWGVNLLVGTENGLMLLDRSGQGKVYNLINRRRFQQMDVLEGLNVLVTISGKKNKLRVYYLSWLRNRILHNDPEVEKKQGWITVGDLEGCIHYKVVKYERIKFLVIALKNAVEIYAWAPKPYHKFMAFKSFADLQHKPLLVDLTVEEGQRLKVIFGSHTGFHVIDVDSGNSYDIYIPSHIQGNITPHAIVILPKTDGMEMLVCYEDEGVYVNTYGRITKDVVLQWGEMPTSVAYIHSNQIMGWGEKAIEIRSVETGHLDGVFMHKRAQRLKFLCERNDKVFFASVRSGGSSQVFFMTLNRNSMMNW

[13] = target: T3, Rhodopsin kinase GRK7 (Homo sapiens) (UniProt Q8WTQ7); assay: Selectivity interaction (KinomeScan (DiscoverX)) EUB0000092b GRK7; details: at 10 µM
T3 sequence (whole entry): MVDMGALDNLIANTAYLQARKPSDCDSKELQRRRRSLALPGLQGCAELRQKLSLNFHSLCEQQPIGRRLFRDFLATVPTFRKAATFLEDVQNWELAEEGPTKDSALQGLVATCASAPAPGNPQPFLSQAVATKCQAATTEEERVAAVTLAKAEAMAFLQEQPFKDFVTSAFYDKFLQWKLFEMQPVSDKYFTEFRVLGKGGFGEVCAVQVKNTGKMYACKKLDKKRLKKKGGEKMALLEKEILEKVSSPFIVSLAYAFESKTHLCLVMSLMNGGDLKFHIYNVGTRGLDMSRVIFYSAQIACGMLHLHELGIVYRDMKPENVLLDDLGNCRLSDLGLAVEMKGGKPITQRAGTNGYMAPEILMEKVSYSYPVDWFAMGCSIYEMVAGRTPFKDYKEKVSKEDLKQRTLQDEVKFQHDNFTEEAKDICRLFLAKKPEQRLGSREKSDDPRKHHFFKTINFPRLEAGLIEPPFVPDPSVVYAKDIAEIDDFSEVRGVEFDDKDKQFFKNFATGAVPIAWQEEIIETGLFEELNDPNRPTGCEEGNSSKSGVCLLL

SMILES: C=CC(=O)Nc1ccc(C(=O)Nc2[nH]nc3c2CN(C(=O)N[C@H](CN(C)C)c2ccccc2)C3(C)C)cc1
- % of engagement [1]: -0.7%

SMILES: CNCCN1CCC(c2cc(CN(C)C(=O)c3cccc(Oc4ccccc4)c3)ccn2)CC1
- % activity [2]: > 90%

SMILES: C=CC(=O)Nc1cc(-n2c(=O)ccc3cnc4ccc(-c5ccc(NS(C)(=O)=O)cc5)cc4c32)ccc1C
- % of control ([3]; at 1 µM): 100%
- % of control ([3]; at 10 µM): 60%

SMILES: Cc1cc(F)c(C(=O)Nc2cccc(-c3nncn3C(C)C)n2)cc1-n1cnc(C2CC2)c1
- % of control [4]: 100%
- % of control [5]: 100%
- % of control [6]: 98%
- % of control [7]: 96%
- % of control [8]: 100%

SMILES: N#Cc1cccc(-c2c[nH]c3ncnc(N4CCOCC4)c23)c1
- % of control [9]: 75%
- % of control [10]: 75%

SMILES: CC[C@@H]1[C@H](F)C(=O)N[C@@H]1COc1nccc2cc(C(N)=O)c(OC)cc12 [ZIMLOVISERTIB]
- % of inhibition [11]: 6.6%
- % of inhibition ([12]; at 0.01 µM): -2.8%
- % of inhibition ([12]; at 0.04 µM): -2.7%
- % of inhibition ([12]; at 0.2 µM): -20.6%
- % of inhibition ([12]; at 1 µM): -28.3%
- % of inhibition ([12]; at 5 µM): 16.1%

SMILES: CCC(=O)N1CCN(c2ccc(-n3c(=O)ccc4cnc5ccc(-c6cnc7ccccc7c6)cc5c43)cc2C(F)(F)F)CC1
- % of control [13]: 100%
